Laboratory results from publication PMC3867298 (Clinical cancer research : an official journal of the …, 2010).

Columns and labels:
[1] = tested on: patients with advanced solid tumors; details: treatment-related, worst grade per patient, all cycles, N = 67
[2] = tested on: plasma soluble VEGFR2 (sVEGFR2); assay: Plasma soluble VEGFR2 ELISA; type: in vivo, human; details: cycle 1, day 28 (95% CI 5,086, 6,113); baseline cycle 1 day 1 8,419 pg/mL; P < 0.001
[3] = tested on: advanced solid tumors; assay: Antitumor activity by modified RECIST and CA125; type: in vivo, human
[4] = Plasma pharmacokinetics in patients; type: in vivo, human; details: for AUC(0-inf) / Cmax / Tmax / half-life / Vd/F: human, plasma, oral; for Vd/F: 160 mg/m2, Vd/F
[5] = tested on: MDA-MB-231 breast cancer xenograft; details: MDA-MB-231 xenograft, with reduced tumor vascularization (CD31); cited from earlier work
[6] = tested on: H929 human plasmacytoma xenografts; details: vs vehicle; cited from earlier work
[7] = day 1, 160 mg/m^2, n=8, mean ± SD
[8] = day 28, 160 mg/m^2, n=5, mean ± SD

Cc1cc(Nc2cc(N3CCN(C)CC3)nc(/C=C/c3ccccc3)n2)n[nH]1 [ENMD-2076]
Mucositis, any grade, No. of patients [1]: 10 | Mucositis, grade 3, No. of patients [1]: 0 | Mucositis, grade 4, No. of patients [1]: 0 | Nausea/vomiting, any grade, No. of patients [1]: 26 | Nausea/vomiting, grade 3, No. of patients [1]: 0 | Nausea/vomiting, grade 4, No. of patients [1]: 0 | Patients reporting related adverse events, grade 3 [1]: 28% | Patients reporting related adverse events, grade 3, No. of patients [1]: 19 | Patients reporting related adverse events, grade 4 [1]: 9% | Patients reporting related adverse events, grade 4, No. of patients [1]: 6 | Mean plasma sVEGFR2 [2]: 5,600 pg/mL | Colorectal cancer patients with SD ≥ 12 weeks ([3]; 19 colorectal cancer patients, 5 patients): 26% | Ovarian cancer patients with PR or SD ≥ 12 weeks ([3]; 20 ovarian cancer patients, all dose levels, twelve patients): 60% | Partial responses (PR) as best response ([3]; 58 evaluable patients, 2 patients, 1 confirmed, both ovarian cancer): 3% | Progressive disease (PD) as best response ([3]; 58 evaluable patients, 7 patients): 12% | Patients with decreases in tumor measurements from baseline not qualifying as PR ([3]; twenty patients): 30% | CL/F ([4]; day 1, 60 mg/m^2, n=6, mean ± SD): 37.9 ± 19.3 L/h | CL/F ([4]; day 1, 80 mg/m^2, n=4, mean ± SD): 45.9 ± 13.0 L/h | CL/F ([4]; day 1, 120 mg/m^2, n=3, mean ± SD): 64.3 ± 16.9 L/h | CL/F [4, 7]: 52.9 ± 18.4 L/h | CL/F ([4]; day 1, 200 mg/m^2, n=5, mean ± SD): 41.5 ± 13.3 L/h | CL/F ([4]; day 1, 350 mg/m^2, n=2, mean ± SD): 55.2 ± 12.9 L/h | CL/F ([4]; day 28, 60 mg/m^2, n=6, mean ± SD): 10.4 ± 7.9 L/h | CL/F ([4]; day 28, 80 mg/m^2, n=3, mean ± SD): 10.8 ± 3.3 L/h | CL/F ([4]; day 28, 120 mg/m^2, n=3, mean ± SD): 13.0 ± 1.4 L/h | CL/F [4, 8]: 9.1 ± 2.9 L/h | CL/F ([4]; day 28, 200 mg/m^2, n=4, mean ± SD): 14.0 ± 4.7 L/h | AUC(0-inf) ([4]; 60 mg/m2, AUC(0-inf), day 1, 60 mg/m^2, n=6, mean ± SD): 3160 ± 1340 ng·h/mL | AUC(0-inf) ([4]; 60 mg/m2, AUC(0-inf), day 28, 60 mg/m^2, n=6, mean ± SD): 15300 ± 8910 ng·h/mL | Cmax ([4]; 60 mg/m2, Cmax, day 1, 60 mg/m^2, n=6, mean ± SD): 64 ± 23 ng/mL | Cmax ([4]; 60 mg/m2, Cmax, day 28, 60 mg/m^2, n=6, mean ± SD): 218 ± 95 ng/mL | Tmax ([4]; 60 mg/m2, Tmax, day 1, 60 mg/m^2, n=6, mean ± SD): 7.8 ± 7.8 h | Tmax ([4]; 60 mg/m2, Tmax, day 28, 60 mg/m^2, n=6, mean ± SD): 4.7 ± 3 h | half-life ([4]; 60 mg/m2, t1/2, day 1, 60 mg/m^2, n=6, mean ± SD): 36.4 ± 19.3 h | half-life ([4]; 60 mg/m2, t1/2, day 28, 60 mg/m^2, n=6, mean ± SD): 53.1 ± 20.4 h | AUC(0-inf) ([4]; 80 mg/m2, AUC(0-inf), day 1, 80 mg/m^2, n=4, mean ± SD): 3850 ± 1600 ng·h/mL | AUC(0-inf) ([4]; 80 mg/m2, AUC(0-inf), day 28, 80 mg/m^2, n=3, mean ± SD): 14700 ± 3780 ng·h/mL | Cmax ([4]; 80 mg/m2, Cmax, day 1, 80 mg/m^2, n=4, mean ± SD): 101 ± 59 ng/mL | Cmax ([4]; 80 mg/m2, Cmax, day 28, 80 mg/m^2, n=3, mean ± SD): 233 ± 76 ng/mL | Tmax ([4]; 80 mg/m2, Tmax, day 1, 80 mg/m^2, n=4, mean ± SD): 4 ± 1.6 h | Tmax ([4]; 80 mg/m2, Tmax, day 28, 80 mg/m^2, n=3, mean ± SD): 3.4 ± 1.2 h | half-life ([4]; 80 mg/m2, t1/2, day 1, 80 mg/m^2, n=4, mean ± SD): 31.8 ± 7.6 h | half-life ([4]; 80 mg/m2, t1/2, day 28, 80 mg/m^2, n=3, mean ± SD): 51 ± 18.7 h | AUC(0-inf) ([4]; 120 mg/m2, AUC(0-inf), day 1, 120 mg/m^2, n=3, mean ± SD): 3590 ± 1260 ng·h/mL | AUC(0-inf) ([4]; 120 mg/m2, AUC(0-inf), day 28, 120 mg/m^2, n=3, mean ± SD): 16700 ± 1120 ng·h/mL | Cmax ([4]; 120 mg/m2, Cmax, day 1, 120 mg/m^2, n=3, mean ± SD): 93 ± 14 ng/mL | Cmax ([4]; 120 mg/m2, Cmax, day 28, 120 mg/m^2, n=3, mean ± SD): 314 ± 73 ng/mL | Tmax ([4]; 120 mg/m2, Tmax, day 1, 120 mg/m^2, n=3, mean ± SD): 6 ± 3.5 h | Tmax ([4]; 120 mg/m2, Tmax, day 28, 120 mg/m^2, n=3, mean ± SD): 2.7 ± 3.2 h | half-life ([4]; 120 mg/m2, t1/2, day 1, 120 mg/m^2, n=3, mean ± SD): 27.3 ± 5.8 h | half-life ([4]; 120 mg/m2, t1/2, day 28, 120 mg/m^2, n=3, mean ± SD): 44.9 ± 8.6 h | AUC(0-inf) ([4]; 160 mg/m2, AUC(0-inf), day 1, 160 mg/m^2, n=8, mean ± SD): 5940 ± 2410 ng·h/mL | AUC(0-inf) ([4]; 160 mg/m2, AUC(0-inf), day 28, 160 mg/m^2, n=5, mean ± SD): 34600 ± 16500 ng·h/mL | Cmax ([4]; 160 mg/m2, Cmax, day 1, 160 mg/m^2, n=8, mean ± SD): 157 ± 52 ng/mL | Cmax ([4]; 160 mg/m2, Cmax, day 28, 160 mg/m^2, n=5, mean ± SD): 558 ± 222 ng/mL | Tmax ([4]; 160 mg/m2, Tmax, day 1, 160 mg/m^2, n=8, mean ± SD): 3.5 ± 1.4 h | Tmax ([4]; 160 mg/m2, Tmax, day 28, 160 mg/m^2, n=5, mean ± SD): 4.4 ± 2.1 h | Vd/F [4, 7]: 2020 ± 388 L | Vd/F [4, 8]: 600 ± 229 L | half-life ([4]; 160 mg/m2, t1/2, day 1, 160 mg/m^2, n=8, mean ± SD): 28.6 ± 8.4 h | half-life ([4]; 160 mg/m2, t1/2, day 28, 160 mg/m^2, n=5, mean ± SD): 46.1 ± 9.5 h | AUC(0-inf) ([4]; 200 mg/m2, AUC(0-inf), day 1, 200 mg/m^2, n=5, mean ± SD): 10600 ± 4900 ng·h/mL | AUC(0-inf) ([4]; 200 mg/m2, AUC(0-inf), day 28, 200 mg/m^2, n=4, mean ± SD): 34500 ± 18300 ng·h/mL | Cmax ([4]; 200 mg/m2, Cmax, day 1, 200 mg/m^2, n=5, mean ± SD): 229 ± 65 ng/mL | Cmax ([4]; 200 mg/m2, Cmax, day 28, 200 mg/m^2, n=4, mean ± SD): 557 ± 191 ng/mL | Tmax ([4]; 200 mg/m2, Tmax, day 1, 200 mg/m^2, n=5, mean ± SD): 4 ± 2.4 h | Tmax ([4]; 200 mg/m2, Tmax, day 28, 200 mg/m^2, n=4, mean ± SD): 4.5 ± 2.5 h | half-life ([4]; 200 mg/m2, t1/2, day 1, 200 mg/m^2, n=5, mean ± SD): 38.3 ± 10 h | half-life ([4]; 200 mg/m2, t1/2, day 28, 200 mg/m^2, n=4, mean ± SD): 47.6 ± 12.7 h | AUC(0-inf) ([4]; 350 mg/m2, AUC(0-inf), day 1, 350 mg/m^2, n=2, mean ± SD): 12200 ± 5100 ng·h/mL | Cmax ([4]; 350 mg/m2, Cmax, day 1, 350 mg/m^2, n=2, mean ± SD): 300 ± 18 ng/mL | Tmax ([4]; 350 mg/m2, Tmax, day 1, 350 mg/m^2, n=2, mean ± SD): 3 ± 1.4 h | half-life ([4]; 350 mg/m2, t1/2, day 1, 350 mg/m^2, n=2, mean ± SD): 31.1 ± 14.4 h | half-life ([4]; Mean terminal phase elimination half-life (t1/2), range, after a single dose): 27.3 to 38.3 h | Tmax ([4]; Tmax, range over all dose levels, day 28): 2.7 to 4.7 h | Tumor response [5]: regressions | Tumor growth [6]: Dose-dependent inhibition of tumor growth
